Data reported in patent publication US8143212B2 (Vicuron Pharmaceuticals Inc., priority 2002, dated 2012).

Tests used:
gram positive bacteria = assay: MIC by broth microdilution (NCCLS), with or without 30% bovine serum (Table 42); format: cell-based
Experimental: (§1) Before dissolution, each sample was analyzed by HPLC and quantified.
(§2) The microorganisms used were reference strains obtained from the American Type Culture Collection (ATCC) (Rockville, Md.), SmithKline and French Laboratories (SKF), and the Upjohn Company (UC) (Kalamazoo, Mich.).
(§3) MICs were determined by the broth microdilution methodology following the standard NCCLS procedure (NCCLS Document M7-A6, Vol. 23, No. 2, “Methods for dilution antimicrobial susceptibility tests for bacteria that grow aerobically.” Approved Guideline. January 2003, which can be herein incorporated by reference in its entirety), with or without 30% adult bovine serum (BS) (PAA Laboratories GMBH, Haidmannweg Pasching Austria), using bacterial innocula at approximately 5×10^5 CFU/ml. The media employed included cation-adjusted Müller Hinton broth (Difco Laboratories, Detroit, Mich.) that was used that was adjusted with CaCl2 and MgCl2 to a final concentration of 20 mg/L and 10 mg/L, respectively. Tests were read following 20-24 hours of incubation at 35° C.

gram-negative bacteria [1] = assay: MIC by broth microdilution (NCCLS) (Table 42); format: cell-based
Experimental: as §1, §2, §3

[2] = tested on: panel of gram-positive bacteria; assay: MIC by broth microdilution (NCCLS) of IsoB0 and reference compounds (Table 44); format: cell-based
Experimental: Müller Hinton broth (Difco Laboratories, Detroit, Mich., USA) adjusted with CaCl2 and MgCl2 to a final concentrations of 20 mg/L and 10 mg/L respectively.
The microorganisms used are reference standard strains from the American Type Culture Collection (ATCC, Rockville, USA), Smith Kline and French Laboratories (SKF) and the Upjohn Company (UC, Kalamazoo, Mich., USA).
(§4) MICs were determined by the broth microdilution methodology following the standard NCCLS procedure, with or without 30% bovine serum, using bacterial inocula of approximately 5×10^5 CFU/mL. Tests were read after 20-24 h incubation at 35° C.

[3] = tested on: Candida albicans SKF 2270; assay: MIC by broth microdilution (NCCLS) (Tables 42, 44); format: cell-based
[4] = tested on: Escherichia coli, Proteus vulgaris, Pseudomonas aeruginosas; assay: MIC by broth microdilution (NCCLS) of IsoB0 and reference compounds (Table 44), non-gram-positive bacterial strains; format: cell-based
Experimental: as §4

gram-negative bacteria [5] = conditions: E. coli ATCC25922 ref. strain; NCCLS M100 S-12; cited from earlier work
[6] = ESI-MS of multimers in solution (concentration, pH, ionic strength); format: physicochemical
Experimental: Experiments were performed using an Applied Biosystem API III+ mass spectrometer equipped with a TurboIonSpray source, a Triple Quadrupole analyzer, operating in positive ion mode.
The mass spectra were obtained in electrospray positive mode on a Finnigan LCQ^Deca ion trap instrument previously tuned and calibrated in electrospray mode using Ultramark 1621, caffeine and MRFA (L-metionyl-arginyl-phenilalanyl-arginine).
The mass spectra were obtained in electrospray positive mode on a Finnigan LCQ^Deca ion trap instrument previous tuned and calibrated in electrospray mode using Ultramark 1621, caffeine and MRFA (L-metionyl-arginyl-phenilalanyl-arginine).

human albumin = human albumin (Homo sapiens, UniProt P02768); assay: Protein binding by isothermal titration microcalorimetry (Tables 27, 28); conditions: for Calculated percent Binding: Human albumin (6×10^−4 M)
Experimental: (§5) Integrated heat effects, after correction for heats of dilution, were analyzed by non-linear regression using a simple single-site binding model with the standard Microcal ORIGIN software package. Raw data (μcal/sec) for each injection were integrated to give the total heat effect per addition, then divided by amount of injectant to give kcal/mole of injectant. The same integration was applied for control dilution effects, and this was subtracted from the actual titration data. This provided a differential of the binding curve in which the extent of binding is proportional to the total heat liberated (or absorbed). This was then analyzed by non-linear regression methods in terms of various standard binding models. The simplest model assumes simple non-competitive binding equilibrium, and gives three parameters:

human α-glycoprotein = assay: as above; conditions: for Calculated percent Binding: Human α-glycoprotein ([…]10^−5 M)
Experimental: as §5

[7] = E. faecalis ATCC29212 ref. strain
[8] = Enterococcus faecalis ATCC 7080
[9] = S. aureus ATCC 29213 ref. strain
[10] = Staphylococcus aureus Smith ATCC 19636
[11] = Pseudomonas aeruginosas ATCC 10145

human albumin, sequence (P02768 25-609): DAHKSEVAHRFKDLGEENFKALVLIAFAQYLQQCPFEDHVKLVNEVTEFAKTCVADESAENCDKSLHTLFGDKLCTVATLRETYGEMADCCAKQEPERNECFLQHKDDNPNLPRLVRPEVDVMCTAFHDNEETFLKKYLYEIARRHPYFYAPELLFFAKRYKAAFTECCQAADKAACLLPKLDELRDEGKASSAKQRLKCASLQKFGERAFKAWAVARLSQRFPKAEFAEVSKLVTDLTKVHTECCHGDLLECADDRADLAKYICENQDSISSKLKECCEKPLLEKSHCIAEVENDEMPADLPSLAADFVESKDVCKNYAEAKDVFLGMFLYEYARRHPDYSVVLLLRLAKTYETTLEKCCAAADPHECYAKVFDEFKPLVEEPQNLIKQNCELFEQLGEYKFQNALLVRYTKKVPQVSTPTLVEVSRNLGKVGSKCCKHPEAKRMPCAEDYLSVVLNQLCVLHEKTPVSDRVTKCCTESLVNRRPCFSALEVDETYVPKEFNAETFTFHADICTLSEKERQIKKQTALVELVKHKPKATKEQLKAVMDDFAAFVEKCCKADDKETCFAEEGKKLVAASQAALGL

Gentamycin [reference compound]
MIC (gram positive bacteria; Bacillus subtilis ATCC 6633): 0.25 µg/mL
MIC (gram positive bacteria; [7]): 32 µg/mL
MIC (gram positive bacteria; [8]): 8 µg/mL
MIC (gram positive bacteria; [9]): 8 µg/mL
MIC (gram positive bacteria; S. aureus Smith + 30% BS): ≦0.125 mg/L
MIC (gram positive bacteria; S. epidermidis ATCC 12228): ≦0.125 mg/L
MIC (gram positive bacteria; S. pneumoniae Felton UC41): 8 µg/mL
MIC (gram positive bacteria; [10]): 0.5 µg/mL
MIC (gram positive bacteria; Streptococcus pyrogenes SKF 13400): 4 µg/mL
MIC (gram-negative bacteria [1]; E. coli ATCC25922 ref. strain): 1 µg/mL
MIC (gram-negative bacteria [1]; Escherichia coli SKF 12140): 2 µg/mL
MIC (gram-negative bacteria [1]; Proteus vulgaris ATCC 881): 2 µg/mL
MIC (gram-negative bacteria [1]; [11]): 1 µg/mL
MIC ([2]; Bacillus subtilis ATCC 6633): 0.25 µg/mL
MIC [2, 7]: 32 µg/mL
MIC [2, 8]: 8 µg/mL
MIC [2, 9]: 8 µg/mL
MIC ([2]; S. aureus Smith + 30% BS): ≦0.125 mg/L
MIC ([2]; S. epidermidis ATCC 12228): ≦0.125 mg/L
MIC ([2]; S. pneumoniae Felton UC41): 8 µg/mL
MIC [2, 10]: 0.5 µg/mL
MIC ([2]; Streptococcus pyogenes SKF13400): 4 µg/mL
MIC ([3]; Candida albicans SKF 2270 (Table 42)): >128 µg/mL
MIC ([3]; Candida albicans SKF2270 (Table 44)): >128 µg/mL
MIC ([4]; E. coli ATCC25922 ref. strain): 1 µg/mL
MIC ([4]; Escherichia coli SKF 12140): 2 µg/mL
MIC ([4]; Proteus vulgaris ATCC 881): 2 µg/mL
MIC [4, 11]: 1 µg/mL
Quality control range of MICs for reference strains (gram-negative bacteria [5]): ^3GE 0.25-1 mg/L

Teicoplanin
multimers in solution (ESI-MS) [6]: does not show multimeric complexes
Calculated percent Binding (human albumin; antibiotic 1 μM): 98.3%
Calculated percent Binding (human albumin; antibiotic 10 μM): 98.3%
Calculated percent Binding (human albumin; antibiotic 100 μM): 98.0%
apparent binding affinity (Ka) (human albumin; Human albumin, 25° C., pH 7.4): 0.96 (±0.08) ×10^5 M^−1
Calculated percent Binding (human α-glycoprotein; antibiotic 1 μM): 9.6%
Calculated percent Binding (human α-glycoprotein; antibiotic 10 μM): 9.1%
Calculated percent Binding (human α-glycoprotein; antibiotic 100 μM): 6.0%
apparent binding affinity (Ka) (human α-glycoprotein; α-glycoprotein, 25° C.): 0.07 (±0.01) ×10^5 M^−1
